According to patent EP3246325A1, “2-ACYLAMINOTHIAZOLE COMPOUND CRYSTALS” (priority 2011, dated 2013):
Structures can show the parent of a compound that is named as a salt.

Legend:
[1] = system: human c-mpl-Ba/F3 cell; assay: Mouse oral administration test: blood plasma after oral dosing added to the human c-mpl-Ba/F3 cell proliferation test system; format: in vivo, male ICR mice; settings: 3 mg/kg orally; for Cell proliferation activity (%): male ICR mice, blood sampled 2 hours after administration, maximum activity of each test compound = 100%; for oral absorption: verbal conclusion from Table 1, mice
Experimental: Test Example 2: Mouse Oral Administration Test 3 mg/kg of the test compound suspended in an aqueous solution of 0.5% methylcellulose was orally administered to male ICR mice. […] Table 1 Human c-mpl-Ba/F3 cell proliferation activity of […] after orally administering test compounds

[2] = system: Human c-mpl-Ba/F3 cells; assay: Cell proliferation test for human c-mpl-Ba/F3 cells (WST-1/1-methoxy PMS absorbance); settings: based on the maximum cell proliferation activity of rhTPO being 100%
Experimental: Test Example 1 Cell Proliferation Test for Human c-mpl-Ba/F3 Cells
Human c-mpl-Ba/F3 cells at a concentration of 2 x 10^5 cells/mL were cultured at 37 degree C on a 96 well microplate using RPMI 1640 culture medium (100 microliter/ well) containing 10% fetal calf serum to which various concentrations of the test compound was added. After 24 hours from the start of culturing, 10 microliter/well of WST-1/1-methoxy PMS (cell measuring kit, Dojin) was added. Immediately after the addition and two hours later, the A450/A650 absorbance was measured using a microplate reader (Model 3350, Bio-Rad), and the increase in absorbance after 2 hours was interpreted to represent the proliferation activity of each test compound.

[3] = system: Ba/F3 cells where c-mpl was not introduced; assay: Cell proliferation test with Ba/F3 cells where c-mpl was not introduced (counter-test); format: cell-based

SMILES: O=C(Nc1nc(-c2cc(Cl)cs2)c(N2CCN(C3CCCCC3)CC2)s1)c1cnc(N2CCC(C(=O)O)CC2)c(Cl)c1 [Compound X hydrochloride, reference compound]
- Cell proliferation activity (%) ([1]; 10% blood plasma concentration): 34%

SMILES: O=C(Nc1nc(-c2cc(Cl)cs2)c(N2CCN(C3CCCCC3)CC2)s1)c1cnc(N2CCC(C(=O)O)CC2)c(Cl)c1.O=C(O)/C=C\C(=O)O [1-(3-chloro-5-{ [4-(4-chlorothiophen-2-yl)-5-(4-cyclohexylpiperazin-1-yl)thiazol-2-yl]carbamoyl}pyridin-2-yl) piperidine-4-carboxylic acid maleic acid salt]
- Cell proliferation activity (%) ([1]; 0.3% blood plasma concentration): < 10%
- oral absorption ([1]; listed as compound X maleic acid B type crystals, 3 mg/kg): inferior oral absorption

SMILES: O=C(Nc1nc(-c2cc(Cl)cs2)c(N2CCN(C3CCCCC3)CC2)s1)c1cnc(N2CCC(C(=O)O)CC2)c(Cl)c1 [listing 1 of 2 here]
- Emax [2]: 102%
- cell proliferation effect [3]: a cell proliferation effect was not observed

SMILES: O=C(Nc1nc(-c2cc(Cl)cs2)c(N2CCN(C3CCCCC3)CC2)s1)c1cnc(N2CCC(C(=O)O)CC2)c(Cl)c1 [listing 2 of 2 here]
- oral absorption [1]: excellent oral absorption

SMILES: O=C(Nc1nc(-c2cc(Cl)cs2)c(N2CCN(C3CCCCC3)CC2)s1)c1cnc(N2CCC(C(=O)O)CC2)c(Cl)c1.O=C(O)/C=C\C(=O)O [1-(3-chloro-5-{[4-(4-chlorothiophen-2-yl)-5-(4-cyclohexylpiperazin-1-yl)thiazol-2-yl]carbamoyl}pyridin-2-yl) piperidine-4-carboxylic acid maleic acid salt]
- oral absorption ([1]; listed as compound X maleic acid salt C type crystal, 3 mg/kg): excellent oral absorption
